We go through 23 compounds from patent US11634447B2 (priority 2012, dated 2023).

The subject of this assay is bacterial strain LF82 binding to the glycoprotein BSA-(Mannose)3. Nature of the assay: Bacterial Binding Assay (BBA). It counts as cell-based, Escherichia coli. Conditions: read-out: Bacterial Binding Assay IC50, LF82/Luciferase strain binding to BSA-(Man)3 coated plates, luminescence. An outline of the steps: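 Inhibition of LF82/luciferase E. coli adhesion is read as luminescence after washing off unbound cells. Compound and bacteria (10^7 per well) are co-incubated 40-75 min at room temperature on wells coated with 0.5-2 μg/mL BSA-(Man)3, with BSA-only wells as background; IC50 values derived.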
Regarding `COc1cc(C#C[C@H]2O[C@H](CO)[C@@H](O)[C@H](O)[C@@H]2O)ncc1C#C[C@H]1O[C@H](CO)[C@@H](O)[C@H](O)[C@@H]1O` [Compound 134, (2R,3S,4R,5S,6R)-2-(hydroxymethyl)-6-[2-[4-methoxy-5-[2-[(2R,3S,4R,5S,6R)-3,4,5-trihydroxy-6-(hydroxymethyl)tetrahydropyran-2-yl]ethynyl]-2-pyridyl]ethynyl]tetrahydropyran-3,4,5-triol], the IC50 was found to be 44 nM.
For `OC[C@H]1O[C@H](C#Cc2ccc(C#C[C@H]3O[C@H](CO)[C@@H](O)[C@H](O)[C@@H]3O)c(Cl)c2Cl)[C@@H](O)[C@@H](O)[C@@H]1O` [Compound 75], the IC50 was found to be 76 nM.
Regarding `CCn1c2cc(C#C[C@H]3O[C@H](CO)[C@@H](O)[C@H](O)[C@@H]3O)ccc2c2ccc(C#C[C@H]3O[C@H](CO)[C@@H](O)[C@H](O)[C@@H]3O)cc21` [Compound 111, (2R,3S,4R,5S,6R)-2-[2-[9-ethyl-7-[2-[(2R,3S,4R,5S,6R)-3,4,5-trihydroxy-6-(hydroxymethyl)tetrahydropyran-2-yl]ethynyl]carbazol-2-yl]ethynyl]-6-(hydroxymethyl)tetrahydropyran-3,4,5-triol], the IC50 stood at 2.1 nM.
Then `Cn1ccc(C(=O)c2c(C#C[C@H]3O[C@H](CO)[C@@H](O)[C@H](O)[C@@H]3O)ccc3c2C2(CCNCC2)c2cc(C#C[C@H]4O[C@H](CO)[C@@H](O)[C@H](O)[C@@H]4O)ccc2-3)n1` [Compound 238, [2,7-bis[2-[(2R,3S,4R,5S,6R)-3,4,5-trihydroxy-6-(hydroxymethyl)tetrahydropyran-2-yl]ethynyl]spiro[fluorene-9,4piperidine]-1yl]-(1-methylpyrazol-3-yl)methanone], with 0.09 nM.
On to `CC(C)(C)OC(=O)N1CCC(n2c3cc(C#C[C@H]4O[C@H](CO)[C@@H](O)[C@H](O)[C@@H]4O)ccc3c3ccc(C#C[C@H]4O[C@H](CO)[C@@H](O)[C@H](O)[C@@H]4O)cc32)CC1` [Compound 185, tert-butyl 4-[2,7-bis[2-[(2R,3S,4R,5S,6R)-3,4,5-trihydroxy-6-(hydroxymethyl)tetrahydropyran-2-yl]ethynyl]carbazol-9-yl]piperidine-1-carboxylate], for which the IC50 came out at 1.1 nM.
`CC(C)CC1(O)c2cc(C#C[C@H]3O[C@H](CO)[C@@H](O)[C@H](O)[C@@H]3O)ccc2-c2ccc(C#C[C@H]3O[C@H](CO)[C@@H](O)[C@H](O)[C@@H]3O)cc21` [Compound 169, (2R,3S,4R,5S,6R)-2-[2-[9-hydroxy-9-isobutyl-7-[2-[(2R,3S,4R,5S,6R)-3,4,5-trihydroxy-6-(hydroxymethyl)tetrahydropyran-2-yl]ethynyl]fluoren-2-yl]ethynyl]-6-(hydroxymethyl)tetrahydropyran-3,4,5-triol]: the IC50 amounted to 0.66 nM.
Take `O=C1c2cc(C#C[C@H]3O[C@H](CO)[C@@H](O)[C@H](O)[C@@H]3O)ccc2-c2ccc(C#C[C@H]3O[C@H](CO)[C@@H](O)[C@H](O)[C@@H]3O)cc21` [Compound 119, 2,7-bis[2-[(2R,3S,4R,5S,6R)-3,4,5-trihydroxy-6-(hydroxymethyl)tetrahydropyran-2-yl]ethynyl]fluoren-9-one]: the IC50 was determined as 14 nM.
Consider `CC(C)c1cc(C#C[C@H]2O[C@H](CO)[C@@H](O)[C@H](O)[C@@H]2O)ccc1C#C[C@H]1O[C@H](CO)[C@@H](O)[C@H](O)[C@@H]1O` [Compound 103, (2R,3S,4R,5S,6R)-2-(hydroxymethyl)-6-[2-[3-isopropyl-4-[2-[(2R,3S,4R,5S,6R)-3,4,5-trihydroxy-6-(hydroxymethyl)tetrahydropyran-2-yl]ethynyl]phenyl]ethynyl]tetrahydropyran-3,4,5-triol], for which the IC50 was determined as 7.4 nM.
Then `CC1(Cn2c3cc(C#C[C@H]4O[C@H](CO)[C@@H](O)[C@H](O)[C@@H]4O)ccc3c3ccc(C#C[C@H]4O[C@H](CO)[C@@H](O)[C@H](O)[C@@H]4O)cc32)COC1` [Compound 186], with 0.28 nM; and `OC[C@H]1O[C@H](c2ccc(-c3ccc([C@H]4O[C@H](CO)[C@@H](O)[C@H](O)[C@@H]4O)cc3F)cc2)[C@@H](O)[C@@H](O)[C@@H]1O` [Compound 62], with 67 nM.
Take `CN1CCN(C(=O)Cn2c3cc(C#C[C@H]4O[C@H](CO)[C@@H](O)[C@H](O)[C@@H]4O)ccc3c3ccc(C#C[C@H]4O[C@H](CO)[C@@H](O)[C@H](O)[C@@H]4O)cc32)CC1` [Compound 179, 2-[2,7-bis[2-[(2R,3S,4R,5S,6R)-3,4,5-trihydroxy-6-(hydroxymethyl)tetrahydropyran-2-yl]ethynyl]carbazol-9-yl]-1-(4-methylpiperazin-1-yl)ethanone]: the IC50 amounted to 7.1 nM.
With `OC[C@H]1O[C@H](C#Cc2ccc3c(c2)C2(SCCCS2)c2cc(C#C[C@H]4O[C@H](CO)[C@@H](O)[C@H](O)[C@@H]4O)ccc2-3)[C@@H](O)[C@@H](O)[C@@H]1O` [Compound 191], the IC50 amounted to 0.36 nM.
Regarding `O=C(c1c(C#C[C@H]2O[C@H](CO)[C@@H](O)[C@H](O)[C@@H]2O)ccc2c1C1(CCNCC1)c1cc(C#C[C@H]3O[C@H](CO)[C@@H](O)[C@H](O)[C@@H]3O)ccc1-2)[C@H]1CCCO1` [Compound 233, [2,7-bis[2-[(2R,3S,4R,5S,6R)-3,4,5-trihydroxy-6-(hydroxymethyl)tetrahydropyran-2-yl]ethynyl]spiro[fluorene-9,4piperidine]-1yl]-[(2R)-tetrahydrofuran-2-yl]methanone], the IC50 was determined as 0.05 nM.
As to `OC[C@H]1O[C@H](C#Cc2ccc(C#C[C@H]3O[C@H](CO)[C@@H](O)[C@H](O)[C@@H]3O)c(C(F)(F)F)c2)[C@@H](O)[C@@H](O)[C@@H]1O` [Compound 91, (2R,3S,4R,5S,6R)-2-(hydroxymethyl)-6-[2-[3-(trifluoromethyl)-4-[2-[(2R,3S,4R,5S,6R)-3,4,5-trihydroxy-6-(hydroxymethyl)tetrahydropyran-2-yl]ethynyl]phenyl]ethynyl]tetrahydropyran-3,4,5-triol], the IC50 stood at 58 nM.
Regarding `O=C(c1ccno1)c1c(C#C[C@H]2O[C@H](CO)[C@@H](O)[C@H](O)[C@@H]2O)ccc2c1C1(CCNCC1)c1cc(C#C[C@H]3O[C@H](CO)[C@@H](O)[C@H](O)[C@@H]3O)ccc1-2` [Compound 232, [2,7-bis[2-[(2R,3S,4R,5S,6R)-3,4,5-trihydroxy-6-(hydroxymethyl)tetrahydropyran-2-yl]ethynyl]spiro[fluorene-9,4piperidine]-1yl]-isoxazol-5-yl-methanone], the IC50 came out at 0.04 nM.
As for `OC[C@H]1O[C@H](C#Cc2ccc3oc4ccc(C#C[C@H]5O[C@H](CO)[C@@H](O)[C@H](O)[C@@H]5O)cc4c3c2)[C@@H](O)[C@@H](O)[C@@H]1O` [Compound 106, (2R,3S,4R,5S,6R)-2-(hydroxymethyl)-6-[2-[8-[2-[(2R,3S,4R,5S,6R)-3,4,5-trihydroxy-6-(hydroxymethyl)tetrahydropyran-2-yl]ethynyl]dibenzofuran-2-yl]ethynyl]tetrahydropyran-3,4,5-triol], the IC50 is 7.9 nM.
With `O=C(c1c(C#C[C@H]2O[C@H](CO)[C@@H](O)[C@H](O)[C@@H]2O)ccc2c1C1(CCNCC1)c1cc(C#C[C@H]3O[C@H](CO)[C@@H](O)[C@H](O)[C@@H]3O)ccc1-2)[C@@H]1CCCO1` [Compound 242, [2,7-bis[2-[(2R,3S,4R,5S,6R)-3,4,5-trihydroxy-6-(hydroxymethyl)tetrahydropyran-2-yl]ethynyl]spiro[fluorene-9,4piperidine]-1yl]-[(2S)-tetrahydrofuran-2-yl]methanone], the IC50 came to 0.18 nM.
For `OC[C@H]1O[C@H](C#Cc2cccc3cccc(C#C[C@H]4O[C@H](CO)[C@@H](O)[C@H](O)[C@@H]4O)c23)[C@@H](O)[C@@H](O)[C@@H]1O` [Compound 137, (2R,3S,4R,5S,6R)-2-(hydroxymethyl)-6-[2-[8-[2-[(2R,3S,4R,5S,6R)-3,4,5-trihydroxy-6-(hydroxymethyl)tetrahydropyran-2-yl]ethynyl]-1-naphthyl]ethynyl]tetrahydropyran-3,4,5-triol], the IC50 worked out at 700 nM.
Then `CC(C)C(=O)N1CCC2(CC1)c1cc(C#C[C@H]3O[C@H](CO)[C@@H](O)[C@H](O)[C@@H]3O)ccc1-c1ccc(C#C[C@H]3O[C@H](CO)[C@@H](O)[C@H](O)[C@@H]3O)cc12` [Compound 224, 1-[2,7-bis[2-[(2R,3S,4R,5S,6R)-3,4,5-trihydroxy-6-(hydroxymethyl)tetrahydropyran-2-yl]ethynyl]spiro[fluorene-9,4piperidine]-1yl]-2-methyl-propan-l-one], with 0.08 nM.
Regarding `CN(C)CC(O)Cn1c2ccc(C#C[C@H]3O[C@H](CO)[C@@H](O)[C@H](O)[C@@H]3O)cc2c2cc(C#C[C@H]3O[C@H](CO)[C@@H](O)[C@H](O)[C@@H]3O)ccc21` (stereo partly drawn) [Compound 173, (2R,3S,4R,5S,6R)-2-[2-[9-[3-(dimethylamino)-2-hydroxy-propyl]-6-[2-[(2R,3S,4R,5S,6R)-3,4,5-trihydroxy-6-(hydroxymethyl)tetrahydropyran-2-yl]ethynyl]carbazol-3-yl]ethynyl]-6-(hydroxymethyl)tetrahydropyran-3,4,5-triol], the IC50 is 9.3 nM.
Consider `Cc1cc(-c2cccc(-c3ccc([C@H]4O[C@H](CO)[C@@H](O)[C@H](O)[C@@H]4O)c(C)c3)n2)ccc1[C@H]1O[C@H](CO)[C@@H](O)[C@H](O)[C@@H]1O` [Compound 154, (2R,3S,4R,5S,6R)-2-(hydroxymethyl)-6-[2-methyl-4-[6-[3-methyl-4-[(2R,3S,4R,5S,6R)-3,4,5-trihydroxy-6-(hydroxymethyl)tetrahydropyran-2-yl]phenyl]-2-pyridyl]phenyl]tetrahydropyran-3,4,5-triol], for which the IC50 was 44 nM.
As for `O=C(c1ccn[nH]1)N1CCC2(CC1)c1cc(C#C[C@H]3O[C@H](CO)[C@@H](O)[C@H](O)[C@@H]3O)ccc1-c1ccc(C#C[C@H]3O[C@H](CO)[C@@H](O)[C@H](O)[C@@H]3O)cc12` [Compound 231], the IC50 was 0.08 nM.
For `CC(C)c1cc(C#C[C@H]2O[C@H](CO)[C@@H](O)[C@H](O)[C@@H]2O)c(C(C)C)cc1C#C[C@H]1O[C@H](CO)[C@@H](O)[C@H](O)[C@@H]1O` [Compound 76], the IC50 came out at 46 nM.
